Key:
[1] = tested on: green foxtail; test: Test Example 5: herbicidal effect by foliage application, plastic box (Table 20, symbol G); assay type: in vivo, green foxtail (Setaria viridis); conditions: foliage application, 320 g/ha; for effect on green foxtail (G): 3 weeks after application; for herbicidal effect on green foxtail (G): three weeks after application
From the text: (§1) [Test Example 5] Herbicidal Effect Test by Foliage Application
(§2) Sterilized diluvial soil was placed in a plastic box having a length of 21 cm, a width of 13 cm, and a depth of 7 cm. The seeds of each of southern crabgrass, green foxtail, barnyard grass, wild oat, blackgrass, Italian ryegrass, windgrass, velvetleaf, redroot pigweed, lambsquarters, chickweed, false cleavers, persian speedwell, corn, soybean, rice, wheat, beet, and rapeseed were sowed in a spot-like manner and covered with the soil having a thickness of about 1.5 cm. Thereafter, the plants were grown in a greenhouse at 25° C. to 30° C. After 14-day growth of the plants, the emulsion agent of the compound of the present invention prepared according to Formulation Example 2 was diluted with water so as to achieve a predetermined herbicide amount, and the diluted emulsion agent was uniformly applied to a foliage part with a small-sized spray. Three weeks after the herbicide application, the effect of the herbicide on each plant was evaluated according to the criteria of Test Example 1.

[2] = tested on: Italian ryegrass; test: Test Example 5: herbicidal effect by foliage application, plastic box (Table 20, symbol K); assay type: in vivo, Italian ryegrass (Lolium multiflorum); conditions: foliage application, 320 g/ha; for effect on Italian ryegrass (K): 3 weeks after application; for herbicidal effect on Italian ryegrass (K): three weeks after application
In short: (§3)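 Post-emergence foliar test in sterilized diluvial soil. Compound applied as water-diluted emulsion at a predetermined rate to 14-day-old plants; evaluation at three weeks.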

[3] = tested on: Chinese sprangletop; test: Test Example 3: herbicidal effect by foliage application, Wagner pot (Table 18, symbol D); assay type: in vivo, chinese sprangletop (Leptochloa chinensis); conditions: 320 g/ha
In short: (§4)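 Plants were sown in alluvial soil held under 0.1–0.5 cm standing water and grown 14 days in a greenhouse at 25–30 °C. An emulsifiable formulation, water-diluted to the set dose, was then sprayed onto the foliage, and effects were scored three weeks later using previously defined criteria.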

[4] = tested on: barnyard grass; test: Test Example 3: herbicidal effect by foliage application, Wagner pot (Table 18, symbol H); assay type: in vivo, barnyard grass (Echinochloa crus-galli); conditions: 320 g/ha
Procedure: [Test Example 3] Herbicidal Effect Test by Foliage Application After alluvial soil was placed into 1/10000 are of Wagner pot, water was poured and mixed to form a submerged condition having a water depth of 0.1 cm to 0.5 cm. Seeds of barnyard grass, Chinese sprangletop, rice flat sedge, and rice were sowed and the pot was placed in a greenhouse at 25° C. to 30° C. for growth of the plants. After 14-day growth of the plants, the emulsion agent of the compound of the present invention prepared according to Formulation Example 2 was diluted with water so as to achieve a predetermined herbicide amount, and the diluted emulsion agent was uniformly applied to a foliage part with a small-sized spray. Three weeks after the herbicide application, the effect of the herbicide on each plant was evaluated according to the criteria of Test Example 1.

[5] = tested on: southern crabgrass; test: Test Example 5: herbicidal effect by foliage application, plastic box (Table 20, symbol F); assay type: in vivo, southern crabgrass (Digitaria ciliaris); conditions: foliage application, 320 g/ha; for effect on southern crabgrass (F): 3 weeks after application; for herbicidal effect on southern crabgrass (F): three weeks after application
In short: as §3

[6] = tested on: windgrass; test: Test Example 5: herbicidal effect by foliage application, plastic box (Table 20, symbol L); assay type: in vivo, windgrass (Apera spica-venti); conditions: foliage application, 320 g/ha; for effect on windgrass (L): 3 weeks after application; for herbicidal effect on windgrass (L): three weeks after application
In short: as §3

[7] = tested on: lambsquarters; test: Test Example 5: herbicidal effect by foliage application, plastic box (Table 20, symbol O); assay type: in vivo, lambsquarters (Chenopodium album); conditions: foliage application, 320 g/ha; for effect on lambsquarters (O): 3 weeks after application; for herbicidal effect on lambsquarters (O): three weeks after application
From the text: as §1, §2

[8] = tested on: blackgrass; test: Test Example 5: herbicidal effect by foliage application, plastic box (Table 20, symbol J); assay type: in vivo, blackgrass (Alopecurus myosuroides); conditions: foliage application, 320 g/ha; for effect on blackgrass (J): 3 weeks after application; for herbicidal effect on blackgrass (J): three weeks after application
In short: as §3

[9] = tested on: rice flat sedge; test: Test Example 3: herbicidal effect by foliage application, Wagner pot (Table 18, symbol E); assay type: in vivo, rice flat sedge (Cyperus iria); conditions: 320 g/ha
In short: as §4

[10] = tested on: wild oat; test: Test Example 5: herbicidal effect by foliage application, plastic box (Table 20, symbol I); assay type: in vivo, wild oat (Avena fatua); conditions: foliage application, 320 g/ha; for effect on wild oat (I): 3 weeks after application; for herbicidal effect on wild oat (I): three weeks after application
In short: as §3

[11] = tested on: persian speedwell; test: Test Example 5: herbicidal effect by foliage application, plastic box (Table 20, symbol R); assay type: in vivo, Persian speedwell (Veronica persica); conditions: foliage application, 320 g/ha; for effect on persian speedwell (R): 3 weeks after application; for herbicidal effect on persian speedwell (R): three weeks after application
From the text: as §1, §2

[12] = tested on: barnyard grass; test: Test Example 5: herbicidal effect by foliage application, plastic box (Table 20, symbol H); assay type: in vivo, barnyard grass (Echinochloa crus-galli); conditions: foliage application, 320 g/ha; for effect on barnyard grass (H): 3 weeks after application; for herbicidal effect on barnyard grass (H): three weeks after application
In short: as §3

[13] = tested on: velvetleaf; test: Test Example 5: herbicidal effect by foliage application, plastic box (Table 20, symbol M); assay type: in vivo, velvetleaf (Abutilon theophrasti); conditions: foliage application, 320 g/ha; for effect on velvetleaf (M): 3 weeks after application; for herbicidal effect on velvetleaf (M): three weeks after application
In short: as §3

With `Cc1nn(C)c(=O)c(-c2c(-c3ccc(CO)cc3)sc3ccccc23)c1O` [1-238] the “effect on green foxtail (G)” value [1] was 4 (Herbicidal rate of 70% or more and less than 90%), the “effect on Italian ryegrass (K)” value [2] was 3 (Herbicidal rate of 40% or more and less than 70%) and the “herbicidal effect on D (Chinese sprangletop), rating 0-5” value [3] was 4 (Herbicidal rate of 70% or more and less than 90%). For the same compound, the “herbicidal effect on H (barnyard grass), rating 0-5” value [4] was 4 (Herbicidal rate of 70% or more and less than 90%), the “effect on southern crabgrass (F)” value [5] was 3 (Herbicidal rate of 40% or more and less than 70%) and the “effect on windgrass (L)” value [6] was 0 (Herbicidal rate of 5% or less (almost no effect)). For the same compound, the “effect on lambsquarters (O)” value [7] was 4 (Herbicidal rate of 70% or more and less than 90%), the “effect on blackgrass (J)” value [8] was 0 (Herbicidal rate of 5% or less (almost no effect)) and the “herbicidal effect on E (rice flat sedge), rating 0-5” value [9] was 4 (Herbicidal rate of 70% or more and less than 90%). The “effect on wild oat (I)” value [10] was 0 (Herbicidal rate of 5% or less (almost no effect)), the “effect on persian speedwell (R)” value [11] was 5 (Herbicidal rate of 90% or more (almost completely withered)) and the “effect on barnyard grass (H)” value [12] was 3 (Herbicidal rate of 40% or more and less than 70%). The “effect on velvetleaf (M)” value [13] was 5 (Herbicidal rate of 90% or more (almost completely withered)).

For `C#CCOc1c(C)nn(C)c(=O)c1-c1c(-c2ccc(F)cc2)sc2ccc(F)cc12` [2-006], the “effect on green foxtail (G)” value [1] was 0 (Herbicidal rate of 5% or less (almost no effect)), the “effect on Italian ryegrass (K)” value [2] was 0 (Herbicidal rate of 5% or less (almost no effect)) and the “herbicidal effect on D (Chinese sprangletop), rating 0-5” value [3] was 0 (Herbicidal rate of 5% or less (almost no effect)). The “herbicidal effect on H (barnyard grass), rating 0-5” value [4] was 2 (Herbicidal rate of 20% or more and less than 40%), the “effect on southern crabgrass (F)” value [5] was 0 (Herbicidal rate of 5% or less (almost no effect)) and the “effect on windgrass (L)” value [6] was 0 (Herbicidal rate of 5% or less (almost no effect)). The “effect on lambsquarters (O)” value [7] was 0 (Herbicidal rate of 5% or less (almost no effect)), the “effect on blackgrass (J)” value [8] was 0 (Herbicidal rate of 5% or less (almost no effect)) and the “herbicidal effect on E (rice flat sedge), rating 0-5” value [9] was 0 (Herbicidal rate of 5% or less (almost no effect)). The “effect on wild oat (I)” value [10] was 0 (Herbicidal rate of 5% or less (almost no effect)), the “effect on persian speedwell (R)” value [11] was 2 (Herbicidal rate of 20% or more and less than 40%) and the “effect on barnyard grass (H)” value [12] was 0 (Herbicidal rate of 5% or less (almost no effect)). For the same compound, the “effect on velvetleaf (M)” value [13] was 0 (Herbicidal rate of 5% or less (almost no effect)).

In the case of `CCCC(=O)Oc1c(C)nn(C)c(=O)c1-c1c(-c2ccc(F)cc2)sc2cc(OC)c(OC)cc12` [5-058], the “herbicidal effect on green foxtail (G)” value [1] is reported as 0 (Herbicidal rate of 5% or less (almost no effect)), the “herbicidal effect on Italian ryegrass (K)” value (shortened to “herbicidal effect … (K)”) [2] is reported as 1 (Herbicidal rate of 5% or more and less than 20%) and the “herbicidal effect on Chinese sprangletop (D)” value (“herbicidal effect … (D)” for short) [3] is reported as 0 (Herbicidal rate of 5% or less (almost no effect)). For the same compound, the “herbicidal effect on barnyard grass (H)” value [4] was 0 (Herbicidal rate of 5% or less (almost no effect)), the “herbicidal effect on southern crabgrass (F)” value (from here on “herbicidal effect … (F)”) [5] was 0 (Herbicidal rate of 5% or less (almost no effect)) and the “herbicidal effect on windgrass (L)” value [6] was 0 (Herbicidal rate of 5% or less (almost no effect)). The “herbicidal effect on lambsquarters (O)” value [7] was 0 (Herbicidal rate of 5% or less (almost no effect)), the “herbicidal effect on blackgrass (J)” value [8] was 0 (Herbicidal rate of 5% or less (almost no effect)) and the “herbicidal effect on rice flat sedge (E)” value [9] was 3 (Herbicidal rate of 40% or more and less than 70%). For the same compound, the “herbicidal effect on wild oat (I)” value [10] was 0 (Herbicidal rate of 5% or less (almost no effect)), the “herbicidal effect on persian speedwell (R)” value (“herbicidal effect … (R)” below) [11] was 0 (Herbicidal rate of 5% or less (almost no effect)) and the “herbicidal effect on barnyard grass (H)” value [12] was 0 (Herbicidal rate of 5% or less (almost no effect)). For the same compound, the “herbicidal effect on velvetleaf (M)” value [13] was 0 (Herbicidal rate of 5% or less (almost no effect)).

For `COc1cc2sc(-c3ccc(F)cc3)c(-c3c(O)c(C)nn(C)c3=O)c2cc1Cl` [5-067], the “herbicidal effect on green foxtail (G)” value [1] was 0 (Herbicidal rate of 5% or less (almost no effect)), the “herbicidal effect … (K)” value [2] was 0 (Herbicidal rate of 5% or less (almost no effect)) and the “herbicidal effect … (D)” value [3] was 5 (Herbicidal rate of 90% or more (almost completely withered)). The “herbicidal effect on barnyard grass (H)” value [4] was 3 (Herbicidal rate of 40% or more and less than 70%), the “herbicidal effect … (F)” value [5] was 0 (Herbicidal rate of 5% or less (almost no effect)) and the “herbicidal effect on windgrass (L)” value [6] was 1 (Herbicidal rate of 5% or more and less than 20%). The “herbicidal effect on lambsquarters (O)” value [7] was 3 (Herbicidal rate of 40% or more and less than 70%), the “herbicidal effect on blackgrass (J)” value [8] was 1 (Herbicidal rate of 5% or more and less than 20%) and the “herbicidal effect on rice flat sedge (E)” value [9] was 4 (Herbicidal rate of 70% or more and less than 90%). The “herbicidal effect on wild oat (I)” value [10] was 0 (Herbicidal rate of 5% or less (almost no effect)), the “herbicidal effect … (R)” value [11] was 4 (Herbicidal rate of 70% or more and less than 90%) and the “herbicidal effect on barnyard grass (H)” value [12] was 0 (Herbicidal rate of 5% or less (almost no effect)). For the same compound, the “herbicidal effect on velvetleaf (M)” value [13] was 0 (Herbicidal rate of 5% or less (almost no effect)).

For `COc1cc2sc(-c3ccc(F)cc3OC)c(-c3c(O)c(C)nn(C)c3=O)c2cc1Cl` [5-075], the “herbicidal effect on green foxtail (G)” value [1] was 5 (Herbicidal rate of 90% or more (almost completely withered)), the “herbicidal effect … (K)” value [2] was 0 (Herbicidal rate of 5% or less (almost no effect)) and the “herbicidal effect … (D)” value [3] was 3 (Herbicidal rate of 40% or more and less than 70%). The “herbicidal effect on barnyard grass (H)” value [4] was 5 (Herbicidal rate of 90% or more (almost completely withered)), the “herbicidal effect … (F)” value [5] was 3 (Herbicidal rate of 40% or more and less than 70%) and the “herbicidal effect on windgrass (L)” value [6] was 3 (Herbicidal rate of 40% or more and less than 70%). For the same compound, the “herbicidal effect on lambsquarters (O)” value [7] was 4 (Herbicidal rate of 70% or more and less than 90%), the “herbicidal effect on blackgrass (J)” value [8] was 3 (Herbicidal rate of 40% or more and less than 70%) and the “herbicidal effect on rice flat sedge (E)” value [9] was 3 (Herbicidal rate of 40% or more and less than 70%). The “herbicidal effect on wild oat (I)” value [10] was 0 (Herbicidal rate of 5% or less (almost no effect)), the “herbicidal effect … (R)” value [11] was 4 (Herbicidal rate of 70% or more and less than 90%) and the “herbicidal effect on barnyard grass (H)” value [12] was 4 (Herbicidal rate of 70% or more and less than 90%). The “herbicidal effect on velvetleaf (M)” value [13] was 0 (Herbicidal rate of 5% or less (almost no effect)).

Source: patent US20230085307A1, “PYRIDAZINONE COMPOUND AND HERBICIDE” (NISSAN CHEMICAL CORPORATION, priority 2019, published 2023)
